The numbers were not newly measured in patent publication US20020103221A1, “Use of growth hormone secretagogues for improvement of functional health status” (priority 2000, published 2002), which cites them from elsewhere.

Non-standard residues stand in square brackets, D forms with d. Residues, ends and D or L forms follow the SMILES beside them. d2Nal = N[C@H](Cc1ccc2ccccc2c1)C(=O)O; Aib = CC(C)(N)C(=O)O

The test system of data set [1] is markers of bone formation and bone resorption. Conditions: obese young males.
The subject of data set [2] is serum insulin-like growth factor-I; quadriceps muscle. Conditions: canines, during remobilization.
The conditions of data set [3]: adult female rats.
For data set [4] the following is noted: GH-deficient adults.

On to `CC(C)(N)C(=O)N[C@H](COCc1ccccc1)C(=O)N1CCC2(CC1)CN(S(C)(=O)=O)c1ccccc12` [MK-0677], for which the “markers of bone formation and bone resorption” value in data set [1] is recorded as “increases”. Further, in data set [2], the “levels of serum insulin-like growth factor-I” value is “elevated”; the “size and strength of the quadriceps muscle” value is on record as “increased”.
As for `CC(C)(N)C(=O)N[C@@H](Cc1c[nH]cn1)C(=O)N[C@H](Cc1ccc2ccccc2c1)C(=O)N[C@H](Cc1ccccc1)C(=O)N[C@@H](CCCCN)C(N)=O` [ipamorelin] (H-[Aib]H[d2Nal][dF]K-NH2), the bone mass entry in data set [3] is on record as “capacity to increase bone mass”.
With GHRP-6, the bone mass result in data set [3] is listed as “capacity to increase bone mass”.
Regarding “growth hormone: growth hormone replacement given to GH-deficient adults”, the self-perceived well-being entry in data set [4] is given as “significant improvements”.
